The target in data set [1] is T1, Sigma non-opioid intracellular receptor 1 (Homo sapiens, UniProt Q99720). The data set is described as follows: Displacement of [3H]-(+)-pentazocine from human sigma1 receptor transfected in HEK293 cell membranes assessed as inhibition constant incubated for 120 mins in presence of haloperidol by microbeta scintillation counter analysis. More on the design: species or system Cell membrane. For orientation: Loss of bound radioactivity is the signal in a displacement assay; it reports binding, not function.

The species named for the next data set is Homo sapiens. The data set is described as follows: Selectivity ratio of Ki for displacement of [3H]-(+)-pentazocine from human sigma1 receptor transfected in HEK293 cell membranes assessed as inhibition constant to Ki for displacement of [3H]-1,3-di-O-tolylguanidine from human sigma 2 receptor/TMEM97 transfected in sigma 1 receptor knockout HEK293 cell membranes assessed as inhibition constant.

The target of data set [2] is T2, Sigma intracellular receptor 2 (Homo sapiens, UniProt Q5BJF2). The data set is described as follows: Displacement of [3H]-1,3-di-O-tolylguanidine from human sigma 2 receptor/TMEM97 transfected in sigma 1 receptor knockout HEK293 cell membranes assessed as inhibition constant measured after 120 mins by microbeta scintillation counting analysis. More on the design: species or system Cell membrane.

A short description of data set [3]: Metabolic stability in human liver microsome assessed as parent compound remaining at 1 uM measured after 1 hr in presence of NADPH regenerating system by UPLC-MS/MS analysis. In kind it is ADME. As to conditions: liver microsomes, read-out: Stability. (In general: Liver microsomes are a subcellular fraction often used to study metabolism.)
Data set [4] can be described thus: Metabolic stability in rat liver microsome assessed as parent compound remaining at 1 uM measured after 1 hr in presence of NADPH regenerating system by UPLC-MS/MS analysis. In kind it is ADME. As to conditions: liver microsomes, read-out: Stability.
Data set [5] is described as follows: Metabolic stability in mouse liver microsome assessed as parent compound remaining at 1 uM measured after 1 hr in presence of NADPH regenerating system by UPLC-MS/MS analysis. In kind it is ADME. As to conditions: liver microsomes, read-out: Stability.
Data set [6] deals with Voltage-gated inwardly rectifying potassium channel KCNH2 (Homo sapiens, UniProt Q12809). Nature of the data set: Inhibition of hERG expressed in CHO cells at holding potential of -80 mV measured for 15 seconds by whole cell patch clamp assay. In kind it is toxicity, cell-based. For orientation: The hERG channel carries a current that helps repolarise heart muscle cells.
For data set [7], the target named is T1, Sigma non-opioid intracellular receptor 1. Nature of the data set: Binding affinity to sigma1 receptor (unknown origin) assessed as inhibition constant.
The target of data set [8] is T2, Sigma intracellular receptor 2. The data set is described as follows: Binding affinity to sigma2 receptor (unknown origin) assessed as inhibition constant.
A further data set relates to Neuron. Nature of the data set: Neuroprotective activity against MPP+ induced rat neurons at 10 uM pretreated with compond for 1 hr followed by MPP+ addition and measured after 48 hrs. In kind it is functional, cell-based. As to conditions: time 49.0 hrs.
The nature of data set [9]: Binding affinity to sigma1 receptor (unknown origin) assessed as inhibition constant.

SMILES strings stand for the structures. Active and inactive are the calls of the source. The calls are words filed in the database; no cut-off is given here. Some results are limits rather than exact numbers.

Chain of Voltage-gated inwardly rectifying potassium channel KCNH2 (Q12809 whole entry): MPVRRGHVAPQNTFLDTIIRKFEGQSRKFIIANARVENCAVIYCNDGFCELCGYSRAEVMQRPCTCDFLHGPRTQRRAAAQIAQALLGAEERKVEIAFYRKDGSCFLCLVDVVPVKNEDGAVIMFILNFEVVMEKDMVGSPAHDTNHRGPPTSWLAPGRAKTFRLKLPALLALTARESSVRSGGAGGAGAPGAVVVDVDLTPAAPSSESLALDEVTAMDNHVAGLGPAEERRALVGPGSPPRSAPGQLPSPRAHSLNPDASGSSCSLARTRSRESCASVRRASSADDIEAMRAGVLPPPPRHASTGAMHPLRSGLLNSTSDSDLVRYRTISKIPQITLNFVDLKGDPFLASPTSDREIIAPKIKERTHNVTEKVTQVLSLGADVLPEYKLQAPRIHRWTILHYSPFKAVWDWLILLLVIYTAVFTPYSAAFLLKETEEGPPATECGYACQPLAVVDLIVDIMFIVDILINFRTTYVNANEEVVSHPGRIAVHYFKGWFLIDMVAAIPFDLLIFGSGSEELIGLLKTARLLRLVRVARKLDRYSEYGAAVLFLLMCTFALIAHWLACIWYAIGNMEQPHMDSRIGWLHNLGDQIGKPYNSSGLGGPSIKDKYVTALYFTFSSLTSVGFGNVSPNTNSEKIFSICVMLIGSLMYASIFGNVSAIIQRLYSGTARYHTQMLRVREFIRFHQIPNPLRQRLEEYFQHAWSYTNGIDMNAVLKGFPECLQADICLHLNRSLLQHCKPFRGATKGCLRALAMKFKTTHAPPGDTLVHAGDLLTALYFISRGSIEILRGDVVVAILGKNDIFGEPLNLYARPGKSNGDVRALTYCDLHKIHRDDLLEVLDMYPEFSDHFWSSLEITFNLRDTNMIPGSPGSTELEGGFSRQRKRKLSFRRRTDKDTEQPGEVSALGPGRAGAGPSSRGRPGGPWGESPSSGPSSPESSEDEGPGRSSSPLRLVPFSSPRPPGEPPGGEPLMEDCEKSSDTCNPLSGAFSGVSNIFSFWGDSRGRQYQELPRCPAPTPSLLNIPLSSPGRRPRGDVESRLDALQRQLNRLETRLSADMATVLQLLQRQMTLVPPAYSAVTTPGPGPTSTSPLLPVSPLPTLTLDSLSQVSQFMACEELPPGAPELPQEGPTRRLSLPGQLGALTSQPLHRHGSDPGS
T2 sequence (Q5BJF2 whole entry): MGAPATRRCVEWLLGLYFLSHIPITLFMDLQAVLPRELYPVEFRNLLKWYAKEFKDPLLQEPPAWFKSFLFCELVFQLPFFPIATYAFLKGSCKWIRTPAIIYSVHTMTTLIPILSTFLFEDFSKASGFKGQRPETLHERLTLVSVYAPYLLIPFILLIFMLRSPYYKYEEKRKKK
T1 sequence (Q99720 whole entry): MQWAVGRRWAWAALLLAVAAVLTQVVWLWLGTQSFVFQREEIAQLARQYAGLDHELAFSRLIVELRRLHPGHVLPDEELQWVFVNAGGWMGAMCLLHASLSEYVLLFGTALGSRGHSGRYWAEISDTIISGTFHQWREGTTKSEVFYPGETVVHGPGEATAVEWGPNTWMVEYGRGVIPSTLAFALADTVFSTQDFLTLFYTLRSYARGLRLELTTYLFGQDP

One may read the Ki as a measure of affinity in units of concentration, obtained from inhibition or displacement. For orientation: IC50 means the concentration at which inhibition is half-maximal. A low value points to greater potency. As for `CCCc1ncc(-c2cc(C)no2)c(C2CCN(CC(=O)N3CCOCC3)CC2)n1`, the figures for the inhibition constant Ki in data set [1] and in [2] were more than 1000 nM and 61 nM, respectively. Also, the Ratio Ki in the data set filed under Homo sapiens is more than 16. For the same compound, the remaining at 1 h, 1 µM amounted to 89% in data set [3], 90% in [4] and 89% in [5]. In [6], this compound showed an IC50 of 5400 nM.
As for `CCc1ncc(-c2nccn2C)c(C2CCN(CC(=O)N3CCOCC3)CC2)n1`, the Ki in [1] is more than 10000 nM; in data set [2] it was 951 nM. Also, the Ratio Ki in the data set listed under Homo sapiens is more than 10.
Take `OCCCN1CCCC2CC1c1cc(-c3ccc(C(F)(F)F)cc3)ccc12` (stereo unspecified): the Ki in data set [7] was 1280 nM; in data set [8], 46 nM.
`CCn1ncc(-c2cc(C)no2)c1C1CCN(CC(=O)N2CCOCC2)CC1`: the Ki in data set [1] and in data set [2] was more than 1000 nM each time.
With `Cc1cc(-c2cnc(C)nc2C2CCN(CC(=O)N3CCOCC3)CC2)on1`, the Ki came out at 8270 nM in data set [1] and 59 nM in data set [2]. In the data set filed under Homo sapiens, the Ratio Ki was 140. The remaining at 1 h, 1 µM was 104% in data set [3], 100% in [4] and 87% in data set [5]. The compound further gave an IC50 in [6] of more than 10000 nM.
Regarding `CCc1ncc(-c2cc(C)no2)c(C2CCN(CC(=O)N3CCC4(CCOC4)CC3)CC2)n1`, the figures for the Ki in data set [1] and in data set [2] were 2150 nM and 1 nM, respectively. Besides, in the data set listed under Homo sapiens, the Ratio Ki came to 2150. Further, the remaining at 1 h, 1 µM in data set [3] is 82%; in [4], 92%; in data set [5], 88%. Also, in [6], the IC50 is more than 10000 nM.
Turning to `CCc1ncc(-c2cc(C)no2)c(C2CCN(CC(=O)N3CCCOCC3)CC2)n1`, the Ki was more than 1000 nM in data set [1] and 5 nM in data set [2]. Also, the Ratio Ki in the data set listed under Homo sapiens is more than 200. Also, the remaining at 1 h, 1 µM in data set [3] worked out at 77%; in data set [4] it was 84%; in data set [5], 69%. The IC50 in data set [6] is more than 10000 nM.
As for `CCc1ncc(-c2cc(C)no2)c(C2CCN(CCC(=O)N3CCOCC3)CC2)n1`, the Ki was more than 1000 nM in data set [1] and 62 nM in [2]. The remaining at 1 h, 1 µM stood at 86% in [3], 95% in [4] and 94% in data set [5]. This compound gave an IC50 in data set [6] of 4500 nM.
Consider `CCc1ncc(-c2cc(C)no2)c(C2CCN(CCN3CCOCC3)CC2)n1`, for which the values for the Ki in data set [1] and in data set [2] were 150 nM and 38 nM, respectively. In addition, the figures for the remaining at 1 h, 1 µM in data set [3], in data set [4] and in data set [5] were 75%, 67% and 56%, respectively. Also, in data set [6], the IC50 is more than 10000 nM.
`Cc1cc(-c2cnc(C3CC3)nc2C2CCN(CC(=O)N3CCOCC3)CC2)on1`: the Ki is 789 nM in data set [1] and 1 nM in data set [2]. For the same compound, the Ratio Ki in the data set listed under Homo sapiens is 789. For the same compound, the values for the remaining at 1 h, 1 µM in data set [3], in [4] and in data set [5] were 86%, 84% and 97%, respectively. In [6], 4200 nM corresponded to half-maximal inhibition (IC50).
For the compound `CCc1ncc(-c2cccc(C)n2)c(C2CCN(CC(=O)N3CCOCC3)CC2)n1`, the inhibition constant Ki in data set [1] was more than 1000 nM; in data set [2] it was 116 nM. Moreover, the Ratio Ki in the data set listed under Homo sapiens is more than 8.6. The remaining at 1 h, 1 µM in [3] was found to be 83%; in [4] it was 96%; in data set [5] it was 76%.
Turning to `Cc1cc(-c2cnc(C(F)(F)F)nc2C2CCN(CC(=O)N3CCOCC3)CC2)on1`, the Ki is more than 1000 nM in [1] and 6 nM in [2]. Further, the Ratio Ki in the data set listed under Homo sapiens was more than 166. Besides, the remaining at 1 h, 1 µM in data set [3] worked out at 78%; in data set [4], 71%; in data set [5], 77%. Also, the concentration for half-maximal inhibition (IC50) in data set [6] is more than 10000 nM.
For `CCc1ncc(-c2cc(C)no2)c(C2CCN(CC(=O)N3CCCCC3)CC2)n1`, the inhibitory constant (Ki) came out at 882 nM in [1] and 4 nM in data set [2]. For the same compound, the Ratio Ki in the data set listed under Homo sapiens stood at 220. Also, the remaining at 1 h, 1 µM in data set [3] was 58%; in data set [4], 101%; in [5], 59%. In [6], the IC50 was 8700 nM.
Consider `CCc1ncc(-c2cc(C)no2)c(C2CCCN(CC(=O)N3CCOCC3)CC2)n1` (stereo unspecified), for which the Ki was determined as 237 nM in [1] and 131 nM in [2].
For `CCc1ncc(-c2cc(C)no2)c(C2CCN(CC(=O)N3CCCN(C)CC3)CC2)n1`, the Ki was more than 1000 nM in data set [1] and 98 nM in [2]. For the same compound, the Ratio Ki in the data set listed under Homo sapiens is more than 10. Further, the remaining at 1 h, 1 µM in [3] came out at 85%; in data set [4], 97%; in data set [5], 83%. This compound also displayed a concentration for half-maximal inhibition (IC50) in [6] of more than 10000 nM.
As to `CC(C)(C)Oc1cc(CCC(C)(C)N2Cc3ccc(S(C)(=O)=O)cc3C2)ccc1O`, the Ki in [8] was found to be 8 nM; in data set [1], 23 nM; in data set [2], 5 nM; in data set [9] it was 63 nM. Moreover, the Ratio Ki in the data set filed under Homo sapiens was 4.6. The remaining at 1 h, 1 µM in data set [3] stood at 60%; in data set [4] it was 37%; in data set [5] it was 62%. The outcome in the data set on Neuron was Active.
For the compound `Cc1cc(-c2cnc(C(C)C)nc2C2CCN(CC(=O)N3CCOCC3)CC2)on1`, the results for the Ki in data set [1] and in data set [2] were more than 1000 nM and 47 nM, respectively. Also, in the data set listed under Homo sapiens, the Ratio Ki was more than 21. The results for the remaining at 1 h, 1 µM in data set [3], in data set [4] and in [5] were 80%, 81% and 65%, respectively. Further, in data set [6], half-maximal inhibition (IC50) required 3600 nM.
`Cc1cc(-c2cnc(C)nc2C2CCN(C(=O)CN3CCOCC3)CC2)on1`: the Ki in data set [1] and in data set [2] was more than 1000 nM throughout.
`CCc1ncc(-c2cc(C)no2)c(C2CCN(CC(=O)N3CCOCC3)C2)n1` (stereo unspecified): the Ki in data set [1] and in data set [2] was more than 1000 nM in each case.
`CCn1cc(-c2cc(C)no2)c(C2CCN(CC(=O)N3CCOCC3)CC2)n1`: the inhibitory constant (Ki) in [1] is more than 1000 nM; in data set [2], 496 nM.
On to `CCc1ncc(-c2ccncc2)c(C2CCN(CC(=O)N3CCOCC3)CC2)n1`, for which the inhibition constant (Ki) in data set [1] is 807 nM; in data set [2], 727 nM. For the same compound, the Ratio Ki in the data set listed under Homo sapiens came out at 1.1.
The corresponding values for `CCc1ncc(-c2ccccn2)c(C2CCN(CC(=O)N3CCOCC3)CC2)n1` are more than 1000 nM, 319 nM and more than 3.
Take `CCc1ncc(-c2cc(C)no2)c([C@@H]2CCCN(CC(=O)N3CCOCC3)C2)n1`: the Ki was more than 10000 nM in [1] and 164 nM in data set [2].
Take `O=C(CN1CCC(CN2Cc3ccccc3C2=O)CC1)c1ccc(F)cc1` [ROLUPERIDONE]: the Ki in data set [7] was not below 1000 nM.
With `CCc1ncc(-c2cc(C)no2)c([C@H]2CCCN(CC(=O)N3CCOCC3)C2)n1`, the Ki in data set [1] was more than 10000 nM; in data set [2], 788 nM.
In the case of `COc1cc2c(cc1OC)CN(CCCCn1c(=O)n(C)c3ccccc31)CC2`, the Ki in data set [7] came out at 560 nM; in [8], 0.43 nM.
For `Cc1cc(-c2cncnc2C2CCN(CC(=O)N3CCOCC3)CC2)on1`, the Ki in data set [1] is more than 1000 nM; in data set [2] it was 457 nM. In addition, the Ratio Ki in the data set filed under Homo sapiens is more than 2.
